Assay results taken from patent US20260092054A1, “FUSED RING COMPOUND AND PHARMACEUTICAL CONTAINING SAME” (KAKEN PHARMACEUTICAL CO., LTD., priority 2022, published 2026).

How the values were obtained:
human STAT6 = assay: Human STAT6 dependent reporter activity (IL-4 stimulated STAT6 reporter assay using STAT6-HEK293 cells); format: cell-based; settings: IL-4 stimulation, luciferase activity; for inhibition at 0.1 µM / inhibition at 1 µM: Homo sapiens, read-out: Inhibition rate (%)
human STAT6/pIL-4Rα = biological target: T1, human STAT6/pIL-4Rα (Homo sapiens, UniProt P42226); assay: Binding inhibitory activity between human STAT6/pIL-4Rα by fluorescence polarization method; settings: rhSTAT6 (123-658) / FAM-pIL-4Rα peptide
T1 construct: histidine tag
T1 sequence (P42226 123-658): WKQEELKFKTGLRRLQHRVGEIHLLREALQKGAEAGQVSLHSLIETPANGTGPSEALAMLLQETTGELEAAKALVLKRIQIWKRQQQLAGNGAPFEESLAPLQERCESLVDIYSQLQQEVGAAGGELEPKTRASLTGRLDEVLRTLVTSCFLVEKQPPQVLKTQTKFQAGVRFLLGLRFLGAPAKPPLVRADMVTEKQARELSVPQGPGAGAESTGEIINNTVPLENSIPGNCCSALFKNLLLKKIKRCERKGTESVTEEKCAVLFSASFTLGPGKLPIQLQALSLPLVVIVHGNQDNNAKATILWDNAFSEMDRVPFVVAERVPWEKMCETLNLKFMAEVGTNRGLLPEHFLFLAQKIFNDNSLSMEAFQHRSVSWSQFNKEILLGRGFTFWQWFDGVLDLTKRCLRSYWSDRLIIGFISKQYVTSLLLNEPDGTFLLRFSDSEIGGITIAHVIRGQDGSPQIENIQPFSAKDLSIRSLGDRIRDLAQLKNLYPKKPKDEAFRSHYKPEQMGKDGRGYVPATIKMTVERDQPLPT
How it was run: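 His-tagged human STAT6 (residues 123–658, E. coli-expressed) was preincubated with compound for 30 min at RT in the dark, in buffer e.g. 50 mM NaCl, 10 mM HEPES pH 7.0, 1 mM DTT, 1 mM EDTA, 0.01% NP-40. FAM-pIL-4Rα peptide was then added for 30 min. Fluorescence polarisation was read at 485/535 nm, with IC50 interpolated linearly between two points flanking 50%.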

| SMILES | inhibition at 0.1 µM (human STAT6; compound 0.1 μmol/L) [%] | IC50 (human STAT6/pIL-4Rα) [nM] | inhibition at 1 µM (human STAT6; compound 1 μmol/L) [%] | Inhibition rate (%) (human STAT6; compound 0.1 μmol/L) | Inhibition rate (%) (human STAT6; compound 1 μmol/L) |
| --- | --- | --- | --- | --- | --- |
| CCn1c(-c2ccc(-n3cnn(C)c3=O)cc2)cc2cc(C(F)(F)F)cc(C(=O)Nc3cccc(C(N)=O)c3)c21 [Ex. 35] | 100 | 350 | – | – | – |
| CCn1c(-c2ccc(-n3c(C)nn(C)c3=O)cc2)cc2cc(C(F)(F)F)cc(C(=O)Nc3cccc(C(N)=O)c3)c21 [Ex. 37] | 96 | 250 | 100 | – | – |
| CCn1c(-c2ccc(-n3cnn(C)c3=O)cc2)cc2cc(C(F)(F)F)cc(C(=O)Nc3ccc(F)c(C(N)=O)c3)c21 [Ex. 38] | – | 330 | 100 | 99 | – |
| CCn1c(-c2ccc(-n3c(C)nn(C)c3=O)cc2)cc2cc(C(F)(F)F)cc(C(=O)Nc3ccc(F)c(C(N)=O)c3)c21 [Ex. 39] | 84 | 1200 | 99 | – | – |
| CCn1c(-c2ccc(-n3c(C)nn(C)c3=O)cc2)cc2cc(C(F)(F)F)cc(C(=O)Nc3cccc(C(=O)NC)c3)c21 [Ex. 40] | 92 | 290 | 100 | – | – |
| COCCn1c(-c2ccc(-n3cnn(C)c3=O)cc2)cc2cc(C(F)(F)F)cc(C(=O)Nc3ccc(F)c(C(N)=O)c3)c21 [Ex. 41] | 92 | 280 | 100 | – | – |
| COCCn1c(-c2ccc(-n3cnn(C)c3=O)cc2)cc2cc(C(F)(F)F)cc(C(=O)Nc3cccc(C(N)=O)c3F)c21 [Ex. 42] | 90 | 260 | 100 | – | – |
| CNC(=O)c1cccc(NC(=O)c2cc(C(F)(F)F)cc3cc(-c4ccc(-n5cnn(C)c5=O)cc4)n(CCOC)c23)c1 [Ex. 43] | 93 | 250 | 100 | – | – |
| CNC(=O)c1cccc(NC(=O)c2cc(C(F)(F)F)cc3cc(-c4ccc(-n5c(C)nn(C)c5=O)cc4)n(CCOC)c23)c1 [Ex. 44] | 93 | 170 | 100 | – | – |
| CCn1c(-c2ccc(-n3cnn(C)c3=O)cc2)cc2cc(C(F)(F)F)cc(C(=O)Nc3ccc(F)c(C(N)=O)c3)c21 [Ex. 45] | – | 250 | – | 63 | 100 |
| Cn1ncn(-c2ccc(-c3cc4cc(C(F)(F)F)cc(C(=O)Nc5ccc(F)c(C(N)=O)c5)c4[nH]3)cc2)c1=O [Ex. 46] | 81 | 450 | 100 | – | – |
| CCn1c(-c2ccc(-n3ncn(C)c3=O)cc2)cc2cc(C(F)(F)F)cc(C(=O)Nc3cccc(C(N)=O)c3F)c21 [Ex. 47] | 43 | 1000 | 95 | – | – |
| CCn1c(-c2ccc(-n3ncn(C)c3=O)cc2)cc2cc(C(F)(F)F)cc(C(=O)Nc3cccc(C(N)=O)c3)c21 [Ex. 48] | 84 | 340 | 100 | – | – |
| CCn1c(-c2ccc(-n3c(C)nn(C)c3=O)cc2)cc2c(C(F)(F)F)ccc(C(=O)Nc3cccc(C(N)=O)c3F)c21 [Ex. 49] | 97 | 310 | 100 | – | – |
| CCn1c(-c2ccc(-n3c(C)nn(C)c3=O)cc2)cc2cc(C#N)cc(C(=O)Nc3ccc(F)c(C(N)=O)c3)c21 [Ex. 50] | 42 | 560 | 99 | – | – |
| CNC(=O)c1cc(NC(=O)c2cc(C(F)(F)F)cc3cc(-c4ccc(-n5c(C)nn(C)c5=O)cc4)n(CCOC)c23)ccc1F [Ex. 51] | 13 | 490 | 82 | – | – |
| COCCn1c(-c2ccc(-n3c(C)nn(C)c3=O)cc2)cc2cc(C(F)(F)F)cc(C(=O)Nc3cccc(C#N)c3)c21 [Ex. 52] | 52 | 190 | 100 | – | – |
| CCn1c(-c2ccc(-n3c(C)nn(C)c3=O)cc2)cc2cc(Cl)cc(C(=O)Nc3ccc(F)c(C(N)=O)c3)c21 [Ex. 56] | 94 | 270 | 100 | – | – |
| CCn1c(-c2ccc(-n3c(C)nn(C)c3=O)cc2)cc2nccc(C(=O)Nc3ccc(F)c(C(N)=O)c3)c21 [Ex. 57] | 89 | 490 | 100 | – | – |
